Experiments:
[1] = target: T1, Cholecystokinin receptor type A (Rattus norvegicus, UniProt P30551); experiment: Compound was evaluated for the inhibition of […] I-CCK-8 binding at Cholecystokinin type A receptor in rat pancreatic membranes; type: cell membranes, Membrane
T1 sequence (P30551 whole entry): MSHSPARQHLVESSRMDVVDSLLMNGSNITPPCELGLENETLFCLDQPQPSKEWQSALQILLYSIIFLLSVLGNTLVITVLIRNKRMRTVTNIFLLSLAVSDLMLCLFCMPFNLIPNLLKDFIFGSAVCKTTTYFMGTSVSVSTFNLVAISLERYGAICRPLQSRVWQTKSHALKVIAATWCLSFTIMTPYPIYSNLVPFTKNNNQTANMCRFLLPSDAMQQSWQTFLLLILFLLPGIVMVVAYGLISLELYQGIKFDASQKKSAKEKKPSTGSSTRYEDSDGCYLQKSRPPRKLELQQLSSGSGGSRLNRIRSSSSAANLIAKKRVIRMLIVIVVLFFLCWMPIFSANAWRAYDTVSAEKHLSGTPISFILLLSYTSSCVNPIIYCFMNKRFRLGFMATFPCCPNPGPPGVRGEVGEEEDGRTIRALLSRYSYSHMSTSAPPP

[2] = target: T2, Cholecystokinin receptor type A (Rattus norvegicus) (UniProt P30551); experiment: Compound was evaluated for the inhibition of […] I-CCK-8 binding at Cholecystokinin type A receptor in rat pancreatic membranes at 10 e -8 M; type: cell membranes; conditions: Membrane
T2 sequence (whole entry): T1 sequence (P30551 whole entry)

[3] = target: Cholecystokinin receptor (Homo sapiens) (UniProt P32239+P32238); experiment: Ratio of inhibitory activity of CCK-A to CCK-B was reported.; type: protein assay
Cholecystokinin receptor (Homo sapiens), sequence (P32238 whole entry, looked up): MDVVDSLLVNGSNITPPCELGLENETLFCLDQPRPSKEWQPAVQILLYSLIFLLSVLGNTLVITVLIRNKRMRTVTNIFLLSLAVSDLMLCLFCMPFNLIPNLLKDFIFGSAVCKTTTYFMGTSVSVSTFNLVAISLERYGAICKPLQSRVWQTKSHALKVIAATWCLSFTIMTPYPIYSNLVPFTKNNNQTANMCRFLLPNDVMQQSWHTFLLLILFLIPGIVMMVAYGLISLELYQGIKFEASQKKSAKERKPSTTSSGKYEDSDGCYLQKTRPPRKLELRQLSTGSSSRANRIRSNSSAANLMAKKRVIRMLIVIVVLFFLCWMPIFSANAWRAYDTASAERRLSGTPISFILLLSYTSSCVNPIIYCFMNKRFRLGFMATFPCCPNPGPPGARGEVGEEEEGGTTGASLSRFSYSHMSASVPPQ
Cholecystokinin receptor (Homo sapiens), sequence (P32239 whole entry, looked up): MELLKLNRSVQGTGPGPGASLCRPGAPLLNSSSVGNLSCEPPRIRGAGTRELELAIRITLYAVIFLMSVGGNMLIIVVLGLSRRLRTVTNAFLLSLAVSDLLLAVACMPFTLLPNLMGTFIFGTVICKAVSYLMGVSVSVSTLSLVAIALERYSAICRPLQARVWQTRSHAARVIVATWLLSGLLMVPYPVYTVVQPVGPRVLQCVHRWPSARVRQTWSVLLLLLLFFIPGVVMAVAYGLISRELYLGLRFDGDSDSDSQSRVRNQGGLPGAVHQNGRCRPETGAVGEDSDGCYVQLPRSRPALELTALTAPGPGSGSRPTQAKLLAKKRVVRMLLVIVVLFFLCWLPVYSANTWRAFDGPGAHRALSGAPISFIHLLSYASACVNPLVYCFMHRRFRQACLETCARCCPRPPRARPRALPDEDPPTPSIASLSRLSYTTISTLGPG

[4] = Compound was evaluated for the inhibition of […] I-CCK-8 binding at Cholecystokinin type B receptor on guinea pig cerebral cortical membranes

CCc1cccc2c1N(CC(=O)N1CC3CCC(CC3)C1)C(=O)C(NC(=O)Nc1cccc(-c3nnn[nH]3)c1)N=C2c1ccccc1F (centres undefined)
IC50 [1]: 18 nM

CC(C)c1cccc2c1N(CC(=O)N1CC3CCC(CC3)C1)C(=O)C(NC(=O)Nc1cccc(-c3nn[nH]n3)c1)N=C2c1ccccc1F (centres undefined)
inhibition [2]: 12.2%

Cc1cccc2c1N(CC(=O)N1CC3CCC(CC3)C1)C(=O)C(NC(=O)Nc1cccc(-c3nn[nH]n3)c1)N=C2c1ccccc1F (centres undefined)
Ratio [3]: 21 | IC50 [4]: 0.68 nM

CCc1cccc2c1N(CC(=O)N1CC3CCC(CC3)C1)C(=O)C(NC(=O)Nc1cccc(-c3nn[nH]n3)c1)N=C2c1ccccc1F (centres undefined)
Ratio [3]: 22

O=C(Nc1cccc(-c2nnn[nH]2)c1)NC1N=C(c2ccccc2F)c2cccc(Cl)c2N(CC(=O)N2CC3CCC(CC3)C2)C1=O (centres undefined)
IC50 [1]: 13 nM

O=C(Nc1cccc(-c2nn[nH]n2)c1)NC1N=C(c2ccccc2F)c2ccccc2N(CC(=O)N2CC3CCC(CC3)C2)C1=O (centres undefined)
Ratio [3]: 710

O=C(Nc1cccc(-c2nn[nH]n2)c1)NC1N=C(c2ccccc2F)c2cccc(Cl)c2N(CC(=O)N2CC3CCC(CC3)C2)C1=O (centres undefined)
Ratio [3]: 20

O=C(Nc1cccc(-c2nnn[nH]2)c1)NC1N=C(c2ccccc2F)c2ccccc2N(CC(=O)N2CC3CCC(CC3)C2)C1=O (centres undefined)
IC50 [1]: 62 nM
